Data from patent US20120135995A1, “FUNGICIDAL DIPHENYL-SUBSTITUTED PYRIDAZINES” (E.I. Dupont de Nemours and Company, priority 2009, published 2012).

Columns and labels:
Type in all cases: in vivo
Septoria nodorum = assay: Test C: wheat seedlings sprayed, next day inoculated with Septoria nodorum (wheat glume blotch), visual disease rating; conditions: sprayed day before inoculation; for pest or weed control at 40 ppm: 40 ppm test suspension (*)
Outline: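 Preventive foliar test: wheat seedlings sprayed to run-off at 200 ppm (≈500 g/ha) or 40 ppm, in acetone/water with 250 ppm Trem 014, then inoculated with spores the next day. Held 48 h saturated at 24° C, then 6 days at 20° C; disease control rated visually, 0–100 relative to untreated controls.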

Septoria tritici = assay: Test D: wheat seedlings sprayed, next day inoculated with Septoria tritici (wheat leaf blotch), visual disease rating; conditions: sprayed day before inoculation; for pest or weed control at 40 ppm: 40 ppm test suspension (*)
Outline: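 Wheat seedlings sprayed to run-off with 200 ppm (≈500 g/ha) or 40 ppm suspension, inoculated with Septoria tritici spores next day. Held at 24° C in saturated atmosphere for 48 h, then 20° C for 19 days before visual rating, expressed as 0–100% disease control relative to controls.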

Erysiphe graminis = assay: Test F: wheat seedlings sprayed, next day inoculated with Erysiphe graminis (wheat powdery mildew), visual disease rating; conditions: sprayed day before inoculation; for pest or weed control at 40 ppm: 40 ppm test suspension (*)
Outline: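 Seedlings sprayed to run-off with compound suspension in acetone/water containing 250 ppm Trem® 014 (200 ppm ≈ 500 g/ha; asterisked ratings 40 ppm). Inoculated next day with Erysiphe graminis spores and kept 8 days at 20° C. Visual rating 0-100% disease control relative to controls.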

Botrytis cinerea = assay: Test A: tomato seedlings sprayed, next day inoculated with Botrytis cinerea (tomato Botrytis), visual disease rating; conditions: sprayed day before inoculation; for pest or weed control at 40 ppm: 40 ppm test suspension (*)
Outline: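 Tomato seedlings were sprayed to run-off with 200 ppm suspension (≈500 g/ha; 40 ppm where starred) and inoculated next day with B. cinerea spores. Plants were held 48 h at 20 °C in saturated humidity, then 3 days at 24 °C, and disease control was rated visually, 0–100, relative to controls.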

Alternaria solani = assay: Test B: tomato seedlings sprayed, next day inoculated with Alternaria solani (tomato early blight), visual disease rating; conditions: sprayed day before inoculation; for pest or weed control at 40 ppm: 40 ppm test suspension (*)
Outline: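 Tomato seedlings sprayed to run-off with 200 ppm (some 40 ppm) compound suspensions in acetone/water with surfactant; inoculated next day with A. solani spores. Kept 48 h saturated humidity at 27 °C, then 5 days at 20 °C; visual disease control rated 0–100 relative to untreated controls.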

[1] = test system: Puccinia recondita f. sp. tritici; assay: Test E1: wheat seedlings inoculated with Puccinia recondita f. sp. tritici (wheat leaf rust), sprayed afterwards, visual disease rating; conditions: sprayed after inoculation; for pest or weed control at 40 ppm: 40 ppm test suspension (*)
Excerpt: General protocol for preparing test suspensions for Tests A-F: the test compounds were first dissolved in acetone in an amount equal to 3% of the final volume and then suspended at the desired concentration (in ppm) in acetone and purified water (50/50 mix) containing 250 ppm of the surfactant Trem® 014 (polyhydric alcohol esters). The resulting test suspensions were then used in Tests A-F. Spraying a 200 ppm test suspension to the point of run-off on the test plants was the equivalent of a rate of 500 g/ha. An asterisk “*” next to the rating value indicates a 40 ppm test suspension.
Wheat seedlings were inoculated with a spore suspension of Puccinia recondita f. sp. tritici (the causal agent of wheat leaf rust) and incubated in a saturated atmosphere at 20° C. for 24 h, and then moved to a growth chamber at 20° C. for 2 days. At the end of this time the test suspension was sprayed to the point of run-off on the wheat seedlings, and then the seedlings were moved to a growth chamber at 20° C. for 6 days, after which time visual disease ratings were made.
Results for Tests A-F are given in Table A. In the Table, a rating of 100 indicates 100% disease control and a rating of 0 indicates no disease control (relative to the controls). A dash (-) indicates no test results. All results are for 200 ppm except where followed by “*”, which indicates 40 ppm.

[2] = test system: Puccinia recondita f. sp. tritici; assay: Test E2: wheat seedlings sprayed, next day inoculated with Puccinia recondita f. sp. tritici (wheat leaf rust), visual disease rating; conditions: sprayed day before inoculation; for pest or weed control at 40 ppm: 40 ppm test suspension (*)
Outline: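 Compounds in acetone/water (50/50) with 250 ppm Trem® 014 sprayed to run-off at 200 ppm (equivalent to 500 g/ha) or 40 ppm where marked "*". Seedlings inoculated next day with spores, held 24 h saturated at 20° C, then 7 days at 20° C; visual rating 0-100% disease control relative to controls.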

[3] = Puccinia recondita, 200 ppm test suspension

SMILES | Test C rating (disease control) (Septoria nodorum; 200 ppm test suspension) [%] | Test D rating (disease control) (Septoria tritici; 200 ppm test suspension) [%] | Test F rating (disease control) (Erysiphe graminis; 200 ppm test suspension) [%] | Test A rating (disease control) (Botrytis cinerea; 200 ppm test suspension) [%] | Test B rating (disease control) (Alternaria solani; 200 ppm test suspension) [%] | Test E1 rating (disease control) ([1]; 200 ppm test suspension) [%] | Test E2 rating (disease control) ([2]; 200 ppm test suspension) [%] | also measured
COc1cc(OC)cc(-c2c(C)nnc(Cl)c2-c2c(F)cccc2F)c1 [Compound 24, 3-chloro-4-(2,6-difluorophenyl)-5-(3,5-dimethoxyphenyl)-6-methylpyridazine] | – | – | – | – | – | – | – | pest or weed control at 40 ppm (Septoria nodorum; Parastagonospora nodorum): 55%; pest or weed control at 40 ppm (Septoria tritici; Zymoseptoria tritici): 100%; pest or weed control at 40 ppm (Erysiphe graminis; Blumeria graminis): 98%; pest or weed control at 40 ppm (Botrytis cinerea; Botrytis cinerea): 100%; pest or weed control at 40 ppm (Alternaria solani; Alternaria solani): 26%; pest or weed control at 40 ppm ([1]; Puccinia recondita): 26%; pest or weed control at 40 ppm ([2]; Puccinia recondita): 100%
COc1cc(OC)cc(-c2c(CCl)nnc(Cl)c2-c2c(F)cccc2F)c1 [Compound 26, 3-chloro-6-(chloromethyl)-4-(2,6-difluorophenyl)-5-(3,5-dimethoxyphenyl)-pyridazine] | – | – | – | – | – | – | – | pest or weed control at 40 ppm (Septoria nodorum; Parastagonospora nodorum): 0%; pest or weed control at 40 ppm (Septoria tritici; Zymoseptoria tritici): 99%; pest or weed control at 40 ppm (Erysiphe graminis; Blumeria graminis): 0%; pest or weed control at 40 ppm (Botrytis cinerea; Botrytis cinerea): 99%; pest or weed control at 40 ppm (Alternaria solani; Alternaria solani): 0%; pest or weed control at 40 ppm ([1]; Puccinia recondita): 0%; pest or weed control at 40 ppm ([2]; Puccinia recondita): 97%
COc1cc(OC)cc(-c2c(CC#N)nnc(Cl)c2-c2c(F)cccc2F)c1 [Compound 27, 6-chloro-5-(2,6-difluorophenyl)-4-(3,5-dimethoxyphenyl)-3-pyridazine-acetonitrile] | – | – | – | – | – | – | – | pest or weed control at 200 ppm (Septoria nodorum; Parastagonospora nodorum, 200 ppm test suspension): 100%; pest or weed control at 200 ppm (Septoria tritici; Zymoseptoria tritici, 200 ppm test suspension): 100%; pest or weed control at 200 ppm (Erysiphe graminis; Blumeria graminis, 200 ppm test suspension): 98%; pest or weed control at 200 ppm (Botrytis cinerea; Botrytis cinerea, 200 ppm test suspension): 100%; pest or weed control at 200 ppm (Alternaria solani; Alternaria solani, 200 ppm test suspension): 99%; pest or weed control at 200 ppm [1, 3]: 0%; pest or weed control at 200 ppm [2, 3]: 100%
COc1cc(OC)cc(-c2c(C)nnc(Cl)c2-c2ccc(F)cc2F)c1 [Compound 32] | 78 | 99 | 89 | 99 | 99 | 0 | 99 | –
COc1cc(OC)cc(-c2c(CC#N)nnc(C)c2-c2c(F)cccc2F)c1 [Compound 35] | 99 | 100 | 99 | 98 | 99 | 46 | 100 | –
COc1cc(OC)c(Cl)c(-c2c(C)nnc(F)c2-c2c(F)cccc2F)c1 [Compound 36] | 60 | 100 | 100 | 99 | 100 | 100 | 100 | –
COc1cc(OC)cc(-c2c(C)nnc(Cl)c2-c2c(F)cccc2Cl)c1 [Compound 38] | 99 | 100 | 100 | 100 | 99 | 85 | 100 | –
COc1cc(OC)cc(-c2c(C)nnc(C)c2-c2c(F)cccc2Cl)c1 [Compound 39] | 99 | 100 | 98 | 100 | 99 | 99 | 100 | –
COc1cc(OC)cc(-c2c(C)nnc(C)c2-c2ccc(F)cc2F)c1 [Compound 40] | 97 | 100 | 95 | 100 | 99 | 0 | 100 | –
COc1cc(OC)c(Cl)c(-c2c(C)nnc(Cl)c2-c2c(F)cccc2Cl)c1 [Compound 41] | 0 | 100 | 100 | 99 | 99 | 86 | 100 | –
COc1cc(OC)c(Cl)c(-c2c(C)nnc(Cl)c2-c2c(F)cccc2Cl)c1Cl [Compound 42] | 0 | 60 | 42 | 0 | 0 | 0 | 89 | –
COc1cc(OC)c(Cl)c(-c2c(C)nnc(C)c2-c2c(F)cccc2Cl)c1 [Compound 43] | 99 | 100 | 100 | 62 | 82 | 0 | 100 | –
COc1cc(OC)c(Cl)c(-c2c(C)nnc(Cl)c2-c2ccc(F)cc2F)c1 [Compound 44] | 64 | 100 | 100 | 66 | 99 | 96 | 100 | –
COc1cc(-c2c(C)nnc(Cl)c2-c2ccc(F)cc2F)cc(OC)c1Cl [Compound 45] | 97 | 100 | 100 | 100 | 100 | 100 | 100 | –
COc1cc(OC)cc(-c2c(C)nnc(F)c2-c2ccc(F)cc2F)c1 [Compound 46] | 84 | 100 | 98 | 99 | 100 | 0 | 98 | –
